Columns and labels:
[1] = test system: OPN promoter; assay: ChIP of VDR/RXR at OPN promoter in ST2 cells; type: cell-based, mouse; conditions: 10^-7 M, 6 hours
Method: FIG. 3. ChIP/chip analysis of the RANKL gene locus. A) ChIP: ST2 cells were treated with either vehicle or 1,25(OH)2D3 (10^−7 M) and after 6 hours subjected to ChIP using antibodies to VDR, RXR and IgG. Precipitated DNA was analyzed for the presence of either the Cyp24 or the OPN promoter. B) Arrangement of the mouse RANKL gene locus and position of flanking genes. RANKL gene is transcribed on the reverse strand (right to left). C) DNA chip: Precipitated DNA was linearly amplified and then subjected to chip analysis using tiled oligonucleotide arrays containing 50-mers spanning the RANKL gene locus as described in the text. Hybridization data derived from the arrays are indicated in log2 scale across the locus with nucleotide positions on chromosome 14 indicated on the X axis. The first set of two arrays provide linear data comparing IgG (±1,25(OH)2D3) and VDR (±1,25(OH)2D3) over the RANKL upstream regions. The second set of three arrays provides an expanded view of hybridization data comparing VDR (±1,25(OH)2D3), VDR (+1,25(OH)2D3 vs input DNA) and RXR (+1,25(OH)2D3 vs input DNA). VDR/RXR binding regions D1-D5 are tracked by the shading.
As a first step, the inventors treated ST2 cells with either vehicle or 1,25(OH)2D3 for 6 hours, fixed the cells with formalin, and then subjected the cell lysates to ChIP analysis using antibodies to VDR, RXR, and an IgG control. […]

[2] = test system: minimal RANKL promoter; assay: Mouse RANKL minimal promoter (-100 to +65) in pGL3, ST2 cells; type: cell-based; conditions: pGL3, without D5 insert
Text: FIG. 9. The mouse RANKL D5 region is active in the context of the mouse RANKL gene minimal promoter. Mouse RL D5 was inserted upstream of a mouse RANKL gene promoter fragment (−100 to +65) in pGL3 and its inducible activity assessed in ST2 cells. […] Data are the average of triplicate determinations, SEM.
The activity of an enhancer must be evaluated in the context of its local environment, preferentially in the context of both other enhancers and its native promoter. In the case of the RANKL gene, however, this is clearly not possible due to the numbers and the distant locations of the potential regulatory regions. To tackle this problem, the inventors isolated approximately 800 to 1100 bp fragments of each region (D1 to D5) as identified through the ChIP/Chip analysis, cloned each into a luciferase expression vector under the control of a viral thymidine kinase (TK) minimal promoter, and explored the 1,25(OH)2D3- and GC-inducible activity of each following transfection into ST2 cells. […] Nevertheless, positive results provide added support for the potential regulatory capabilities of an individual DNA fragment even when examined in isolation. […] To ensure that the viral TK promoter background was not contributing to our evaluation, the inventors cloned the mouse RANKL promoter (−100 to +65) into pGL3, inserted RL D5 and evaluated its activity in ST2 cells as well.

[3] = test system: D5 region of the RANKL gene (RL-CCL); assay: pTK-RL(D5) luciferase reporter in ST2 cells; type: cell-based, mouse; conditions: 24 hours, agent alone
Method: FIG. 6. Transcriptional activity of the D5 regions of the RANKL gene in the context of the TK promoter. Sequence surrounding the D5 region (1072 bp) was cloned into the pTK-luciferase vector and termed pTK-RL(D5). […] Cells were harvested after 24 hours and luciferase activity assessed. B) ST2 cells were transfected as in A above but without the VDR expression vector and evaluated as in A. C) COS-7 cells were transfected and evaluated as in A above. Luciferase was normalized using beta-gal activity. Data represent the mean of triplicate determinations (SEM). The pTK-luc control vector was unresponsive to any of the inducers (see FIG. 9). *, p<0.05 vs no treatment control.
FIG. 11. […] A) Coordinates of the RL-D5 and the RL-D5b regions in the mouse RANKL upstream region. ST2 cells were transfected with either B) pTK-luc or pTK-mRL-D5 or C) pTK-luc and pTK-mRL-D5b and then treated with the indicated inducers. Cells were harvested after 24 hours and evaluated for luciferase activity. Luciferase was normalized using β-gal activity. Data represent the mean of triplicate determinations (SEM). *, p<0.05 vs no treatment control. **, p<0.05 vs no treatment and 1,25(OH)2D3 treated controls.
The activity of an enhancer must be evaluated in the context of its local environment, preferentially in the context of both other enhancers and its native promoter. In the case of the RANKL gene, however, this is clearly not possible due to the numbers and the distant locations of the potential regulatory regions. To tackle this problem, the inventors isolated approximately 800 to 1100 bp fragments of each region (D1 to D5) as identified through the ChIP/Chip analysis, cloned each into a luciferase expression vector under the control of a viral thymidine kinase (TK) minimal promoter, and explored the 1,25(OH)2D3- and GC-inducible activity of each following transfection into ST2 cells. […] Nevertheless, positive results provide added support for the potential regulatory capabilities of an individual DNA fragment even when examined in isolation. […] This induction was magnified by the addition of a VDR expression vector (FIG. 6a), but was also evident in the absence of such addition (FIG. 6b). […] To ensure that the viral TK promoter background was not contributing to our evaluation, the inventors cloned the mouse RANKL promoter (−100 to +65) into pGL3, inserted RL D5 and evaluated its activity in ST2 cells as well.
Based upon the above data, the inventors explored the possibility that similar to 1,25(OH)2D3, forskolin, PGE2 and OSM might be capable of activating transcription via the D5 fragment of the RANKL gene. […] Cells were harvested 24 hours later and evaluated for luciferase activity as in the previous experiments. […]

[4] = test system: RANKL; assay: RT-PCR of RANKL in MG-63 cells; type: cell-based, human
Method: FIG. 14. […] Cells were treated with the indicated inducers for the periods identified and isolated RNA subjected to PCR analysis for Cyp24, RANKL and b-actin. B) 1,25(OH)2D3 induces VDR binding to the conserved D5 region of the human RANKL gene in MG-63 cells. […] Two different primer sets to the human D5 region were used to assess VDR binding. VDR binding was also observed at D3-D1 but not in intervening regions or at the TSS. C) The human D5 region is transcriptionally active in MG-63 cells. […] Luciferase activity was analysed 24 hours later. […] Data are the average of triplicate determinations, SEM.
The isolated RNA was then subjected to RT-PCR analysis using primers to a control gene (β-actin), a known vitamin D induced gene (Cyp24) and RANKL. […] These and additional data using other hormonal regulators are identical to that observed in mouse cells and it therefore appears likely that human RANKL is regulated in a fashion similar to that in mouse.

C=C1/C(=C\C=C2/CCC[C@]3(C)[C@@H]([C@H](C)CCCC(C)(C)O)CC[C@@H]23)C[C@@H](O)C[C@@H]1O [1,25(OH)2D3]
abundance of OPN promoter DNA precipitated with VDR and RXR antibodies [1]: clearly increased the abundance of DNA
response of minimal RANKL promoter [2]: unresponsive
luciferase activity via D5 (RL-CCL), TK promoter [3]: typical and rather striking dose response
RANKL expression (RT-PCR) [4]: upregulated

— patent publication US20070117182A1, “Nucleic acids conferring transcriptional responsiveness on the RANKL gene promoter and uses thereof” (Wisconsin Alumni Research Foundation, priority 2005, published 2007)
